# Reference: PubChem BioAssay AID2060497 (Molecular Pharmacology Branch, DTP, NCI, 2025)
# pIC50: −log10 of the molar value. Values joined by “and” are separate entries in the source; they are usually repeats but may differ in a detail not shown here. Equal entries are not always repeated.
# Tested on: 317291-083-R-J1-PDC complex spheroids, viability
# Test: Anticancer human tumor 317291-083-R-J1-PDC patient-derived soft tissue sarcoma cell line growth inhibition [GQUAD]
# Conditions: for viability, T/C: stronger effect = lower value
# Text: DNA G-quadruplex Stabilizer Agents in Combinations in Complex Spheroids
# A high-throughput screen of multi-cell type tumor spheroids was designed to identify active combinations of DNA G-quadruplex stabilizer agents and targeted small molecules. Complex spheroids include a stromal component modeled by human endothelial cells (HUVEC) and fibroblasts modeled by human mesenchymal stem cells (MSCs). The concentration ranges selected for each drug and investigational agent were based upon clinically achievable concentrations if the clinical Cmax of the agent was known.
# Compounds. The drugs and investigational agents: pidnarulex (CX-5461; NSC782164), APTO-253 (NSC789042), BRACO-19 (NSC847499), peposertib (NSC802822), ceralasertib (NSC780249), elimusertib (NSC800525), camonsertib (NSC841442), AZD-1390 (NSC803789), olaparib (NSC753686), talazoparib (NSC767125), ART-558 (NSC835418), sotorasib (NSC818433), MRTX-1133 (NSC836407), SN-38 (NSC673596), topotecan (NSC609699), etoposide (NSC141540), doxorubicin (NSC123127), gemcitabine (NSC613327), 5-fluorouracil (NSC19893), paclitaxel (NSC125973), vemurafenib (NSC761431), panobinostat (NSC761190), R-306465 (JNJ-16241199; NSC773264), adavosertib (NSC754352), TP-3654 (NSC805149), carboplatin (NSC241240), KSQ-4279 (NSC840948), and staurosporine (NSC755774) were obtained from the National Cancer Institute (NCI) Developmental Therapeutics Program Chemical Repository (34). The FDA-approved anticancer drug set is available from the NCI Developmental Therapeutics Program. […] The stock solutions were prepared in dimethyl sulfoxide (DMSO, Sigma-Aldrich, St. Louis, MO, cat. D2650) at 800-fold the tested concentration and stored at -70 degrees C prior to their use. All drugs and investigational agents were tested over a range starting from a high concentration at or near the clinical Cmax and decreasing in half-log increments. If the clinical Cmax for an agent had not been determined, the highest concentration tested was 10 microM.
# 2.3 Cell Culture. All cells were maintained in an incubator at 37 degrees C and 5% CO2 with 95% humidity. The PDC lines were cultured according to standard operating procedures established by the NCI PDMR. All PDCs were thawed and cultured in Matrigel-coated flasks prepared with a working solution of 1X Ham's F-12 nutrient mix, without supplementation (Invitrogen, cat. 11765054), 100 U/mL penicillin-streptomycin (Invitrogen, cat. 15140122), and 2.5% Matrigel (Corning Inc., cat. 354248) for the first three passages. The 857933-349-R-J2-PDC line was cultured in 6C/Colon 1B media, which includes advanced DMEM/F-12 (Thermo Fisher Scientific, cat. 12634028), 10 mM HEPES (Thermo Fisher Scientific, cat. 15630080), 1X GlutaMAX supplement (Thermo Fisher Scientific, cat. 35050061), 0.1 mg/mL primocin (InvivoGen, cat. ant-pm-2), 10% defined fetal bovine serum, heat inactivated (HyClone Laboratories Inc., cat. SH30070.03HI), 50% L-WRN conditioned media (ATCC, cat. CRL-3276), 1.25 mM N-Acetyl-L-cysteine (Sigma-Aldrich, cat. A9165), 10 mM nicotinamide (Sigma-Aldrich, cat. N0636), 1X B-27 supplement (Thermo Fisher Scientific, cat. 17504044), 1X N-2 supplement (Thermo Fisher Scientific, cat. 17502048), 10 microM Y-27632 dihydrochloride (Tocris Bioscience, cat. 1254), and 50 ng/mL human EGF recombinant protein (Thermo Fisher Scientific, cat. PHG0311). The 485176-168-R4-J1-PDC line was cultured in Panc media, which includes all 6C/Colon 1B media components plus 100 ng/mL human FGF-10 (Thermo Fisher Scientific, cat. 100-26), 500 nM SB-431542 (Selleckchem, cat. S1067), and gastrin (Tocris, cat. 3006).
# […]
# 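Note: spheroids exposed to compounds for one week before readout.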
# 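Throughout, for viability, T/C: percent viability relative to DMSO vehicle wells taken as 100%.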
pIC50 (curve of compound),"pIC50 (compound alone, run of 02/20/2024)",SMILES,"viability, T/C (compound 0.1 µM)","viability, T/C (compound 10 µM)","viability, T/C (compound 0.0316 µM)","viability, T/C (compound 0.316 µM)","viability, T/C (compound 1 µM)","viability, T/C (compound 3.16 µM)","viability, T/C (compound 0.000999 µM)","viability, T/C (compound 0.00316 µM)","viability, T/C (compound 0.00999 µM)","viability, T/C (compound 0.0999 µM)"
–,–,CN(C)c1ccc(Nc2c3ccc(NC(=O)CCN4CCCC4)cc3nc3cc(NC(=O)CCN4CCCC4)ccc23)cc1,99.5% [middle of 12 runs],11.4% [middle of 11 runs],–,–,–,–,–,–,–,–
6.51 and 6.34 and 6.42,–,COc1cc(C2c3cc4c(cc3C(OC3OC5COC(C)OC5C(O)C3O)C3COC(=O)C23)OCO4)cc(OC)c1O (stereo not drawn),96.7% and 94.9% and 84.3%,12% and 11.2% and 17%,94.7% and 99.8% (2×),48.8% and 64% and 53.8%,22.1% and 20.2% and 30.3%,15.9% and 15.7% and 15.8%,–,–,–,–
5.12 and 5.29 and < 5.00,–,COc1ccc([C@@H](O)c2cc(-c3ncnc4cc(N5CCOCC5)ccc34)c(F)cc2Cl)nn1,97.8% and 87.1% and 92.8%,42.8% and 34.4% and 49.6%,95.9% and 104% and 114%,103% (2×) and 99.2%,72.4% and 93.8% and 95%,74.5% and 61.3% and 76.2%,–,–,–,–
7.16 and 7.15,–,COc1cccc2c1C(=O)c1c(O)c3c(c(O)c1C2=O)CC(O)(C(=O)CO)CC3OC1CC(N)C(O)C(C)O1 (stereo not drawn),35% and 28.7% and 27.3%,4.03% and 0.72% and 2.93%,77.5% and 82.5% and 86.8%,20% and 26.3% and 22.3%,8.85% and 15.2% and 15.3%,3.09% and 0.8% and 0.76%,–,–,–,–
< 5.00,–,COc1ncnc(C2CC2)c1-c1ncc2cnn(Cc3ccc(-c4nc(C(F)(F)F)cn4C(C)C)cc3)c2n1,92.9% and 85.3% and 81.5%,76.2% and 72.3% and 64.5%,103% and 107% and 108%,92.4% and 71.4% and 68.1%,74.2% and 64.1% and 68.2%,100% and 63.6% and 68.3%,–,–,–,–
–,< 5.00,Cc1[nH]c2ccc(F)cc2c1-c1nc2c3cccnc3c3ncccc3c2[nH]1,–,–,–,–,–,–,–,–,–,–
7.38 and 7.24 and 7.19,–,Cc1[nH]c2ccccc2c1CCNCc1ccc(/C=C/C(=O)NO)cc1,–,–,62.6% and 80.2% and 99%,0.25% and 0.09% and 0.84%,–,–,108% and 109% and 114%,92% and 89.5% and 96.1%,106% and 110% and 105%,8.77% and 22.1% and 21.3%
< 5.00,–,Cc1cccc(N(C)C(=O)C2C(O)CCN2c2nc(C)cc(C(F)(F)F)c2C#N)c1 (stereo not drawn),92.7% and 102% and 96.2%,81.7% and 77.5% and 81.6%,98.9% and 109% and 103%,91.3% and 123% and 98.8%,106% and 90.7% and 99.7%,105% and 86.5% and 93.1%,–,–,–,–
–,–,Cc1cnc(CNC(=O)c2c(=O)c3ccc(N4CCCN(C)CC4)nc3n3c2sc2ccccc23)cn1,68.8% [middle of 12 runs],–,93.8% [middle of 12 runs],–,31.6% [middle of 12 runs],–,–,–,–,–
< 6.50,–,Cn1ncnc1[C@H]1c2n[nH]c(=O)c3cc(F)cc(c23)N[C@@H]1c1ccc(F)cc1,–,–,86.2% and 89.7% and 90.5%,64.2% and 62.6% and 69%,–,–,123% and 104% (2×),109% and 92.2% and 102%,99.7% and 95.3% and 94.3%,98.2% and 67.3% and 84.9%
7.43 and 7.44 and 7.26,–,Nc1ccn(C2OC(CO)C(O)C2(F)F)c(=O)n1 (stereo not drawn),16.2% and 24.2% and 38%,9.89% and 13.5% and 8.25%,55.7% and 53.6% and 61.2%,16.1% and 12.7% and 9.59%,13.7% and 10.9% and 8.17%,10.1% and 14.3% and 9.39%,–,–,–,–
6.89 and 6.83 and 6.68,–,O=C(NO)c1cnc(N2CCN(S(=O)(=O)c3ccc4ccccc4c3)CC2)nc1,62.2% and 72.5% and 96.7%,0.29% and 1.01% and 0.08%,109% and 96.9% and 93.2%,8.74% and 8.1% and 24.6%,0.24% and 0.48% and 0.9%,0.11% and 0.05% and 0.04%,–,–,–,–
< 5.00,–,O=C(c1cc(Cc2n[nH]c(=O)c3ccccc23)ccc1F)N1CCN(C(=O)C2CC2)CC1,96.5% and 83.9% and 97.3%,71% and 58.2% and 59.2%,111% and 115% and 109%,120% and 96.5% and 93.9%,88.7% and 107% and 99.4%,87.6% and 84.9% and 93.7%,–,–,–,–
5.80 and 5.63,–,O=c1[nH]cc(F)c(=O)[nH]1,112% and 101% and 100%,36.3% and 23.9% and 38.4%,102% and 111% and 94.4%,95.9% and 101% and 111%,59.7% and 96.8% and 66.8%,35% and 34% and 49.6%,–,–,–,–
